Experiments:
[1] = AUC (0 to 24 hrs) in C57BL/6 mouse plasma at 10 mg/kg, po; assay type: ADME, organism-based; design: time < 24 hr, route oral, dose 10 mg/kg
[2] = Half life in dog at 0.2 mg/kg, iv; assay type: ADME, organism-based, Canis lupus familiaris; settings: in vivo
[3] = Oral bioavailability in rat at 10 mg/kg; assay type: ADME, organism-based; settings: in vivo
[4] = Volume of distribution at steady state in rat at 1.0 mg/kg, iv; assay type: ADME, organism-based; settings: in vivo, read-out: Vdss
hERG (KCNH2) = hERG (KCNH2) (Homo sapiens, UniProt Q12809); test: Inhibition of human ERG at 10 uM by automated patch-clamp assay relative to control
Sequence of hERG (KCNH2) (Q12809 whole entry): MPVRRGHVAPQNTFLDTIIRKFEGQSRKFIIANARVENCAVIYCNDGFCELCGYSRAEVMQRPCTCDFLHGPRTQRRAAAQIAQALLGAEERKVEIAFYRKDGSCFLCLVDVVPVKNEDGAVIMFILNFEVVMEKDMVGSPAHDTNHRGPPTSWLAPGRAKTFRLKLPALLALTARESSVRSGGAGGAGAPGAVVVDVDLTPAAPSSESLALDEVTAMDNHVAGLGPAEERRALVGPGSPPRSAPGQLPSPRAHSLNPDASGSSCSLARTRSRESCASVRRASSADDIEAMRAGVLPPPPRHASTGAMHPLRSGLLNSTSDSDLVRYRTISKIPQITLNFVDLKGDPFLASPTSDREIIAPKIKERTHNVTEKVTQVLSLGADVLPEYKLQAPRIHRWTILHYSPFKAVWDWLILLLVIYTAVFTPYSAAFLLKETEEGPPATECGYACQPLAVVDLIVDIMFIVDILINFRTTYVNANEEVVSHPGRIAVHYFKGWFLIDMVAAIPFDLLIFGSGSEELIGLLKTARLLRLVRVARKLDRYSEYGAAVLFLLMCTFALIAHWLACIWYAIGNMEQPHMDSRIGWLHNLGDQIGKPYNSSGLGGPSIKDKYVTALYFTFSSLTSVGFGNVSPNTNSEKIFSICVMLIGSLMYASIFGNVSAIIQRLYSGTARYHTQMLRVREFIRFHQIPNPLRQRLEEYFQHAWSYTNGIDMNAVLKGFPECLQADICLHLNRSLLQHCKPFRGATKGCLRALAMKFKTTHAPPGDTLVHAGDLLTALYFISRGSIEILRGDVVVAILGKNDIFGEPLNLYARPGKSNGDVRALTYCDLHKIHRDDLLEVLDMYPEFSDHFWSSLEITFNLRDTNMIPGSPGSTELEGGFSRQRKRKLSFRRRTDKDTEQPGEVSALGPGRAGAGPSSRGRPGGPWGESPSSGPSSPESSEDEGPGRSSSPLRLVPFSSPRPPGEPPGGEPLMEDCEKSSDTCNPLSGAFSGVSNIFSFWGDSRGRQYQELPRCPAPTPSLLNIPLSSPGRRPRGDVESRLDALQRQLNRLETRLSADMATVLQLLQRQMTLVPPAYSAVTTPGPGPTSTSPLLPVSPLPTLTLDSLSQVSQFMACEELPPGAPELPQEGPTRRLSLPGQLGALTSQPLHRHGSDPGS

[5] = AUC (0 to 24 hrs) in C57BL/6 mouse brain at 10 mg/kg, po; assay type: ADME, organism-based; design: time < 24 hr, route oral, dose 10 mg/kg
[6] = AUC (0 to 24 hrs) in dog at 1.0 mg/kg, po; assay type: ADME, organism-based, Canis lupus familiaris; design: time < 24 hr, route oral, dose 1 mg/kg; settings: in vivo
[7] = AUC (0 to 24 hrs) in dog at 0.2 mg/kg, iv; assay type: ADME, organism-based, Canis lupus familiaris; design: time < 24 hr, route intravenous, dose 0.2 mg/kg; settings: in vivo
[8] = AUC (0 to 24 hrs) in cynomolgus monkey at 1.0 mg/kg, po; assay type: ADME, organism-based, Macaca fascicularis; design: time < 24 hr, route oral, dose 1 mg/kg; settings: in vivo
[9] = molecular target: Sphingosine 1-phosphate receptor 3 (Homo sapiens, UniProt Q99500); test: Inhibition of S1P3 (unknown origin)
Sequence of Sphingosine 1-phosphate receptor 3 (Q99500 whole entry): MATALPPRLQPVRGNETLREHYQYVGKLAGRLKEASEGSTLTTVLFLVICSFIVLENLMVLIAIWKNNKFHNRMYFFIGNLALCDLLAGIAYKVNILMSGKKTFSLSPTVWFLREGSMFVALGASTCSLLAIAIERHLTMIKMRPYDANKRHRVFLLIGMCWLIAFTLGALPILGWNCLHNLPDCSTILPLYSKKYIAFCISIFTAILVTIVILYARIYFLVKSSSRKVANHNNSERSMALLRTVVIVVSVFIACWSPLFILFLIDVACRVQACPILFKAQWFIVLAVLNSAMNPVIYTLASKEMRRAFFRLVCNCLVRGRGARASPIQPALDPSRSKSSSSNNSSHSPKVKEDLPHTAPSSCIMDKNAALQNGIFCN

[10] = molecular target: Sphingosine 1-phosphate receptor 5 (Homo sapiens, UniProt Q9H228); test: Inhibition of S1P5 (unknown origin)
Sequence of Sphingosine 1-phosphate receptor 5 (Q9H228 whole entry): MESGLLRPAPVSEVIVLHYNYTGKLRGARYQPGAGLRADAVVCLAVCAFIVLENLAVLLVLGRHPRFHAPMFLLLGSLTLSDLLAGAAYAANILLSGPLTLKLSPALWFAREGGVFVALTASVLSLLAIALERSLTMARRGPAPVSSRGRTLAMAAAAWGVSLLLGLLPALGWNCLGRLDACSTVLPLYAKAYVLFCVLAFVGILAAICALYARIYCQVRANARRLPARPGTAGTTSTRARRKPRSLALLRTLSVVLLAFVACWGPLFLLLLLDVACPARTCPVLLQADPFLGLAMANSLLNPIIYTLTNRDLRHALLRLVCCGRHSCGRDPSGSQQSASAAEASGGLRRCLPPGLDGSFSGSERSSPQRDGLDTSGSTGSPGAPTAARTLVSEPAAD

[11] = Drug concentration in mouse brain at 10 mg/kg, po; assay type: ADME, organism-based; settings: in vivo
[12] = Tmax in cynomolgus monkey at 1.0 mg/kg, po; assay type: ADME, organism-based, Macaca fascicularis; settings: in vivo
Cytochrome P450 2C19 = Cytochrome P450 2C19 (Homo sapiens, UniProt P33261); test: Inhibition of CYP2C19 in human liver microsomes incubated for 30 mins in presence of NADPH by LC-MS/MS analysis; assay type: ADME
Sequence of Cytochrome P450 2C19 (P33261 whole entry): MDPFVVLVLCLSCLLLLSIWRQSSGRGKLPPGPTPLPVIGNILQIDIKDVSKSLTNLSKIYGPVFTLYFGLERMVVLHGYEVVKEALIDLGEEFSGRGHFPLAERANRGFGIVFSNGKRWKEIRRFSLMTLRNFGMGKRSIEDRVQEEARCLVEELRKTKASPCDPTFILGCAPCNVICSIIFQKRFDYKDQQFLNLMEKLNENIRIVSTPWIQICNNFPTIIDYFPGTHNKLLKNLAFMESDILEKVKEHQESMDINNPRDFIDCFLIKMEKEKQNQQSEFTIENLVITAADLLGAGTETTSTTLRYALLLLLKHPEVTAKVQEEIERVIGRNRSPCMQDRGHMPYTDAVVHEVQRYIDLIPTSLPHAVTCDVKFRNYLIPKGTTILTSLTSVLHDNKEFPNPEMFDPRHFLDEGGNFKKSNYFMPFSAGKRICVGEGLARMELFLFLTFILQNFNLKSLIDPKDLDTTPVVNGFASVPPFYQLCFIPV

[13] = AUC (0 to 24 hrs) in cynomolgus monkey at 0.2 mg/kg, iv; assay type: ADME, organism-based, Macaca fascicularis; design: time < 24 hr, route intravenous, dose 0.2 mg/kg; settings: in vivo
[14] = Drug concentration in rat brain at 10 mg/kg, po after 4 hrs; assay type: ADME, organism-based; settings: read-out: Ct
[15] = Protein binding in C57BL/6 mouse brain assessed as unbound fraction; assay type: ADME, tissue-based
[16] = Tmax in C57BL/6 mouse plasma at 10 mg/kg, po; assay type: ADME, organism-based
[17] = Total brain to plasma concentration ratio in rat at 10 mg/kg, po measured after 4 hrs; assay type: ADME, organism-based; settings: brain and plasma, read-out: BPR
[18] = molecular target: Voltage-gated inwardly rectifying potassium channel KCNH2 (Homo sapiens, UniProt Q12809); test: Inhibition of human ERG by automated patch-clamp assay
Sequence of Voltage-gated inwardly rectifying potassium channel KCNH2 (Q12809 whole entry): as the sequence (Q12809 whole entry) above

[19] = Tmax in C57BL/6 mouse brain at 10 mg/kg, po; assay type: ADME, organism-based
[20] = AUC (0 to 24 hrs) in C57BL/6 mouse brain at 2.32 mg/kg, iv; assay type: ADME, organism-based; design: time < 24 hr, route intravenous, dose 2.32 mg/kg
Cytochrome P450 3A4 = Cytochrome P450 3A4 (Homo sapiens, UniProt P08684); test: Inhibition of CYP3A4 in human liver microsomes incubated for 15 mins in presence of NADPH by LC-MS/MS analysis; assay type: ADME
Sequence of Cytochrome P450 3A4 (P08684 whole entry): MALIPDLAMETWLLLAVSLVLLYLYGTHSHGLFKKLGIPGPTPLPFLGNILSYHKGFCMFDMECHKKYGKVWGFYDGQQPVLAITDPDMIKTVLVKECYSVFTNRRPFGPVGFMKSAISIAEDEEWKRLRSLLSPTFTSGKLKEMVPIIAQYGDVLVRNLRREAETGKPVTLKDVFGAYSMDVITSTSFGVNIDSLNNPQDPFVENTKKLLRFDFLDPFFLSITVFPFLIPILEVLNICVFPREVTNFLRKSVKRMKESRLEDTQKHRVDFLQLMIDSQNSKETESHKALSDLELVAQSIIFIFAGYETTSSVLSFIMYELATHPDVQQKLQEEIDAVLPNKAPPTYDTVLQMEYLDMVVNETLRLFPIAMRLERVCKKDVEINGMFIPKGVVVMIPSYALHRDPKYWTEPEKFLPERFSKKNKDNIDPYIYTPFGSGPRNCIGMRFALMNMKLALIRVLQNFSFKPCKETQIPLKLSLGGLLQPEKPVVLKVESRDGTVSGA

[21] = Volume of distribution at steady state in cynomolgus monkey at 0.2 mg/kg, iv; assay type: ADME, organism-based, Macaca fascicularis; settings: in vivo, read-out: Vdss
Rattus norvegicus [22] = test: Effect on Sprague-Dawley rat CFA inflammatory […] model assessed as reduction in 20:4 LPA level at 3 mg/kg, po after 6 hrs by LC-MS/MS analysis; assay type: functional; design: scale not given: the % may be the effect or the level left
[23] = Oral bioavailability in dog at 1.0 mg/kg; assay type: ADME, organism-based, Canis lupus familiaris; settings: in vivo
[24] = molecular target: Lysophosphatidic acid receptor 5 (Homo sapiens, UniProt Q9H1C0); test: Inhibition of LPA5 (unknown origin)
Sequence of Lysophosphatidic acid receptor 5 (Q9H1C0 whole entry): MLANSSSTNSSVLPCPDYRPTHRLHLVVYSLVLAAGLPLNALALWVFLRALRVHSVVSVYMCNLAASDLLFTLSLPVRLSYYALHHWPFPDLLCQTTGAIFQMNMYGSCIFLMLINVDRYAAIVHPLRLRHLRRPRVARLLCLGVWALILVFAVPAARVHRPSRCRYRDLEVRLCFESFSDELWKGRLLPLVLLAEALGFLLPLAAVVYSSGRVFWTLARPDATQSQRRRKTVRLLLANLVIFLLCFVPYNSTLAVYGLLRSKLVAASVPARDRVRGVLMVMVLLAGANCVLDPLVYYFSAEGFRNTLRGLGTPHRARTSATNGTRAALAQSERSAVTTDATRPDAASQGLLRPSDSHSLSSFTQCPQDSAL

Cytochrome P450 1A2 = molecular target: T1, Cytochrome P450 1A2 (Homo sapiens, UniProt P05177); test: Inhibition of CYP1A2 in human liver microsomes incubated for 15 mins in presence of NADPH by LC-MS/MS analysis; assay type: ADME
T1 sequence (P05177 whole entry): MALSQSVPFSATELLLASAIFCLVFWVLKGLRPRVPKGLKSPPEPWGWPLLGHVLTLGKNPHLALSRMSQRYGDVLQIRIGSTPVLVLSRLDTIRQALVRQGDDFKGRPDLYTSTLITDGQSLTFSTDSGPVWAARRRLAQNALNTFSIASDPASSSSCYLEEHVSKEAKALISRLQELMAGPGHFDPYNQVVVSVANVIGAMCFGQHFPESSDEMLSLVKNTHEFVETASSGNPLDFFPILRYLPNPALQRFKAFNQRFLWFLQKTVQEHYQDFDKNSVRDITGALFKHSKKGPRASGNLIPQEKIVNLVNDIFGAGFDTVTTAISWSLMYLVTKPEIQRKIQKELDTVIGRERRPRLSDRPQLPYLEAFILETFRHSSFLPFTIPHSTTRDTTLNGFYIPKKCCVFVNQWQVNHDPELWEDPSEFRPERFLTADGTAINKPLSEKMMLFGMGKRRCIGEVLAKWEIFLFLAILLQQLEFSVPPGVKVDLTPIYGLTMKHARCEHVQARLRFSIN

[25] = Oral bioavailability in C57BL/6 mouse at 10 mg/kg; assay type: ADME, organism-based; settings: in vivo
Rattus norvegicus [26] = test: Effect on Sprague-Dawley rat CFA inflammatory […] model assessed as reduction in 20:4 LPA level at 0.1 mg/kg, po after 6 hrs by LC-MS/MS analysis; assay type: functional; design: scale not given: the % may be the effect or the level left
[27] = Drug concentration in Sprague-Dawley rat at 10 mg/kg, po after 6 hrs by LC-MS/MS analysis; assay type: ADME, organism-based; settings: in vivo, read-out: Drug uptake
[28] = molecular target: Lysophosphatidic acid receptor 1 (Homo sapiens, UniProt Q92633); test: Inhibition of LPA1 (unknown origin)
Sequence of Lysophosphatidic acid receptor 1 (Q92633 whole entry): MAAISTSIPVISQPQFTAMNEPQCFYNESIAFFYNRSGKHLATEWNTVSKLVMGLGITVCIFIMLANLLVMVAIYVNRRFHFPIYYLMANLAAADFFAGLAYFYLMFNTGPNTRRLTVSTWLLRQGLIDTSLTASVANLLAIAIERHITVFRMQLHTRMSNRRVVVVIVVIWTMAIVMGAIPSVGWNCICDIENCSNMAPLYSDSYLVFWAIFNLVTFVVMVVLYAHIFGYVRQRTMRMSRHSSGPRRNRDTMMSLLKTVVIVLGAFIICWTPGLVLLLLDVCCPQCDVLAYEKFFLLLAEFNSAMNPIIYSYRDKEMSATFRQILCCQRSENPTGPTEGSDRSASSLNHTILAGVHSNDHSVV

[29] = Volume of distribution at steady state in C57BL/6 mouse plasma at 2.32 mg/kg; assay type: ADME, organism-based; settings: read-out: Vdss
[30] = Tmax in C57BL/6 mouse brain at 2.32 mg/kg, iv; assay type: ADME, organism-based

## C[C@@H](c1ccc2ccc(O[C@H]3CC[C@@H](C(F)(F)F)CC3)c(C(F)(F)F)c2c1)N1C2CCC1CC(C(=O)O)C2 (some centres undefined)
[1]
  AUC(0-t) at 24 h: 12200 ng·h/mL
[2]
  half-life: 14 h
[3]
  bioavailability: 66%
[4]
  Vd: 3 L/kg
hERG (KCNH2)
  inhibition at 10 µM: 21.3%
[5]
  AUC(0-t) at 24 h: 8840 ng·h/mL
[6]
  AUC(0-t) at 24 h: 6590 ng·h/mL
[7]
  AUC(0-t) at 24 h: 1390 ng·h/mL
[8]
  AUC(0-t) at 24 h: 614 ng·h/mL
[9]
  IC50: > 10 µM
[10]
  IC50: > 10 µM
[11]
  AUC: 8840 ng·h/mL
[12]
  Tmax: 4 h
Cytochrome P450 2C19
  IC50: > 10 µM
[13]
  AUC(0-t) at 24 h: 369 ng·h/mL
[14]
  concentration at 4 h: 97 ng/mL
[15]
  Fu: 0.096%
[16]
  Tmax: 3 h
[17]
  Kp at 4 h: 0.2
[18]
  IC50: > 10 µM
[19]
  Tmax: 7 h
[20]
  AUC(0-t) at 24 h: 3020 ng·h/mL
Cytochrome P450 3A4
  IC50: > 10 µM
[21]
  Vd: 2.4 L/kg
Rattus norvegicus [22]
  Activity: 61%
[23]
  bioavailability: 69%
[24]
  IC50: > 10 µM
Cytochrome P450 1A2
  IC50: > 10 µM
[25]
  bioavailability: 51%
Rattus norvegicus [26]
  Activity: 89%
[27]
  concentration at 6 h: 188 ng/mL
[28]
  IC50: > 10 µM
[29]
  Vd: 2.36 L/kg
[30]
  Tmax: 3 h

— ChEMBL document CHEMBL4825722, “Discovery of Potent Selective Nonzinc Binding Autotaxin Inhibitor BIO-32546” (ACS Med Chem Lett, 2021)
